This note sets out measurements from paper PMC13408523, “Psoralen and Seselin Stabilize the α-helix Structure in Lysozyme and Inhibit the α-helix to β-sheet Exchange: An Efficient Anti-Amyloidogenic Mechanism” (Advanced Pharmaceutical Bulletin, 2025).

Where two headings read alike, the source gives them in different places.

In general, Kd refers to the equilibrium constant for the complex coming apart.

This experiment has as its target T1, hen egg white lysozyme (HEWL) (Gallus gallus, UniProt P00698).
T1 construct: gene LYZ
Nature of the experiment: SPR (HEWL amine-coupled on CMD gold chip, […]°C); intrinsic fluorescence quenching. In kind it is binding.

T1 sequence (P00698 19-147): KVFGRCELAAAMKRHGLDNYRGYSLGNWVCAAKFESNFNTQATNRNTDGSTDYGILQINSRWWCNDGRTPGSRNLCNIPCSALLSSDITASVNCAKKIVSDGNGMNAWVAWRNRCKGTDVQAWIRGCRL

On to `O=c1ccc2cc3ccoc3cc2o1` [psoralen], for which the dissociation constant Kd was 9.32 µM. Take `CC1(C)C=Cc2c(ccc3ccc(=O)oc23)O1` [seselin]: the dissociation constant (Kd) (read-out: Kd) was determined as 46.8 µM.
